Data as given in patent US12437835B2, “Interrogatory cell-based assays and uses thereof” (Berg LLC, priority 2012, dated 2025).
Entries after “also recorded” stand apart in the source; their conditions may differ.

Columns and labels:
[1] = test system: human mitochondrial energy metabolism genes; experiment: Transcriptional profiling of mitochondrial energy metabolism genes in diabetic cardiomyocytes; format: cell-based; conditions: diabetic drug plus rescue molecule Coenzyme Q10 (T+R) vs untreated (UT)
Procedure: Human cardiomyocytes were subject to conditions simulating an diabetic environment experienced by the disease-relevant cells in vivo. Specifically, the cells were exposed to hyperglycemic conditions and hyperlipidemia conditions. The hyperglycemic condition was induced by culturing cells in media containing 22 mM glucose. The hyperlipidemia condition was induced by culturing the cells in media containing 1 mM L-carnitine, 0.7 mM Oleic acid and 0.7 mM Linoleic acid. […]
Cell samples from each condition with each perturbation treatment were collected at various times following treatment, including after 6 hours of treatment. For certain conditions, media samples were also collected and analyzed.
iProfiling of changes in total cellular protein expression by quantitative proteomics was performed for cell and media samples collected for each condition and with each “environmental perturbation”, i.e, diabetic drug treatment, Coenzyme Q10 treatment or both, using the techniques described above in the detailed description. […] Following data collection (Ct), the final fold change over control was determined using the δCt method as outlined in manufacturer's protocol. […] Functional assays such as Oxygen consumption rate OCR were measured by employing the Seahorse analyzer essentially as recommended by the manufacturer. […]

[2] = test system: hyperglycemia conditioned cardiomyocytes; experiment: Mitochondrial oxygen consumption rate in hyperglycemia conditioned cardiomyocytes (Seahorse); format: cell-based, Human; conditions: diabetic drug plus Coenzyme Q10 (T1+R or T2+R)
Procedure: Human cardiomyocytes were subject to conditions simulating an diabetic environment experienced by the disease-relevant cells in vivo. Specifically, the cells were exposed to hyperglycemic conditions and hyperlipidemia conditions. The hyperglycemic condition was induced by culturing cells in media containing 22 mM glucose. The hyperlipidemia condition was induced by culturing the cells in media containing 1 mM L-carnitine, 0.7 mM Oleic acid and 0.7 mM Linoleic acid.
iProfiling of changes in total cellular protein expression by quantitative proteomics was performed for cell and media samples collected for each condition and with each “environmental perturbation”, i.e, diabetic drug treatment, Coenzyme Q10 treatment or both, using the techniques described above in the detailed description. Transcriptional profiling experiments were carried out using the Biorad cfx-384 amplification system. Following data collection (Ct), the final fold change over control was determined using the δCt method as outlined in manufacturer's protocol. Lipidomics experiments were carried out using mass spectrometry. Functional assays such as Oxygen consumption rate OCR were measured by employing the Seahorse analyzer essentially as recommended by the manufacturer. OCR was recorded by the electrodes in a […] chamber created with the cartridge pushing against the seahorse culture plate. […]

HUVEC cells [3] = experiment: HUVEC cell numbers; format: cell-based, Human
Procedure: (§1) Methods: Human umbilical vein endothelial cell (HUVEC) fate decisions that modulate the angiogenic phenotype were examined in the presence of 100 or 1500 μM CoQ10 or excipient and compared to untreated control cells. Endothelial cell fate assays for apoptosis, proliferation, migration and 3-D tube formation within MATRIGEL® were performed.
(§2) CoQ10 decreases endothelial cell numbers and proliferation: Sub-confluent cultures of HUVEC cells were treated for 72 hours with 100 or 1500 μM CoQ10 and assayed for both cell numbers (FIG. 54A) and proliferation (FIG. 54B) using a propidium iodide incorporation assay (detects G2/M phase DNA).

HUVEC cells [4] = experiment: HUVEC proliferation (propidium iodide incorporation, G2/M phase); format: cell-based, Human; conditions: sub-confluent HUVEC, 72 hours, 100 or 1500 μM CoQ10
Procedure: as §1, §2

HUVEC cells [5] = experiment: Reactive oxygen species (ROS) generation in HUVEC under normoxia and hypoxia; format: cell-based, Human; conditions: subconfluent and confluent HUVEC, normoxic or hypoxic, 0, 100 or 1500 μM CoQ10
Procedure: The response of HUVEC cells to normoxia and hypoxia in the presence of absence of CoQ10 was assessed. Specifically, HUVEC cells were grown in subconfluent and confluent cultures under normoxic or hypoxic conditions as described herein. The cells were also exposed to 0, 100, or 1500 μM CoQ10. Nitric oxide (NO) and reactive oxygen species (ROS) levels were determined using methods provided herein.

caspase 3 = experiment: Caspase 3 activation in endothelial cells; format: cell-based
Excerpt: Angiogenesis is a key enabling feature of tumor progression that provides oxygen and nutrients that are required for tumor cell growth. We have investigated the anti-angiogenic properties of CoQ10, an anti-tumor drug that is currently under investigation in human studies of cancer progression.

Bcl2 = conditions: normal fibroblast, co-administration of CoQ-10 and VEGF; cited from earlier work

## COC1=C(OC)C(=O)C(C/C=C(\C)CC/C=C(\C)CC/C=C(\C)CC/C=C(\C)CC/C=C(\C)CC/C=C(\C)CC/C=C(\C)CC/C=C(\C)CC/C=C(\C)CCC=C(C)C)=C(C)C1=O [CoQ10, Coenzyme Q10]
[1]; listed as Coenzyme Q10
  transcriptional network and expression of human mitochondrial energy metabolism genes: normalize gene expression and transcription
[1]; listed as rescue molecule
  transcriptional network and expression of human mitochondrial energy metabolism genes: normalizes gene expression
[2]
  mitochondrial OCR (oxygen consumption rate): normalized
[2]; listed as rescue molecule
  mitochondrial OCR (oxygen consumption rate): normalizes
HUVEC cells [3]; 1500 μM CoQ10
  HUVEC cell counts: significantly decreased
HUVEC cells [3]; sub-confluent HUVEC, 72 hours, 100 or 1500 μM, high concentrations of CoQ10
  cell numbers: significant decrease; also recorded: decreased cell numbers
HUVEC cells [4]
  EC proliferation (G2/M phase cells): dose-dependent effect; also recorded: potent inhibitor of endothelial proliferation; also recorded: impairs endothelial proliferation
HUVEC cells [5]
  generation of reactive oxygen species (ROS): differential dose dependent generation
Caspase 3
  activation of caspase 3: induces activation of caspase 3
Bcl2
  levels of Bcl2: no effect
